Data reported in paper PMC7721803, “Development of a penem antibiotic against Mycobacteroides abscessus” (Communications Biology, 2020).
Converted amounts (≈) assume the structure as drawn. Where two headings read alike, the source gives them in different places.

Key:
[1] = test system: M. abscessus ATCC 19977; format: cell-based, Mycobacteroides abscessus
[2] = PK simulation with one-compartmental model (plasma-free drug, fT>MIC); parameters: species or system BALB/c mice
Method: All procedures involving mice were approved by the Animal Care and Use Committee of Johns Hopkins University. T405 was dissolved in PBS. […] Blood was sampled from three mice per group per time point by mandibular vein puncture or cardiac puncture at the following time points: 5, 15, 30, 60, 120, and 240 min post-dose. Plasma was separated in heparin-containing tubes and frozen. […] Concentration–time data were analyzed by standard non-compartmental and compartmental techniques using WinNonlin (version 7.0; Pharsight, Mountain View, CA). […] A plasma free drug fraction of 2% of the total drug concentration was included in the simulations.

[3] = Stability in mouse plasma; format: in vitro ADME; conditions: 5 μM, 37 °C, over 4 h
[4] = Mouse plasma protein binding assay (rapid equilibrium dialysis); format: in vitro ADME; conditions: mouse plasma/serum, 4 h
Method: The plasma protein binding assay was performed with a Rapid Equilibrium Dialysis (RED) device (Thermo Scientific, Rockford, IL) according to the manufacturer’s directions and as previously described. […] Aliquots were taken at 30 min and 4 h, diluted with phosphate-buffered saline (PBS), and quenched in 75 µL cold acetonitrile/water (9:1) + 0.1% formic acid mixture containing 5 µM internal standard 1,8-diazabicyclo(5.4.0)undec-7-ene (DBU). The resulting mixture was incubated at −80 °C for 30 min and subjected to centrifugation at 20,000 × g for 20 min.

[5] = test system: Mycobacterium tuberculosis reference strain H37Rv; experiment: MIC by broth dilution method; format: cell-based; conditions: 336 h, 37 °C, 14 days
Method: MIC of each drug against M. abscessus was determined using the broth dilution method[27] in accordance with CLSI guidelines specific for this organism, except that Middlebrook 7H9 broth was used instead of cation-adjusted Mueller–Hinton broth. Powdered drug stocks were reconstituted in dimethyl sulfoxide and twofold serial dilutions were prepared in Middlebrook 7H9 broth to obtain final drug concentrations ranging from 512 to 0.5 µg/mL in 96-well plates. 10^5 colony forming units (CFU)/mL of M. abscessus from an exponentially growing culture were added to each well. M. abscessus cultured without drug and 7H9 broth alone were included in each plate as positive and negative controls, respectively. […] Growth of M. abscessus or lack thereof was assessed by visual inspection and an MIC for each drug was recorded as the lowest concentration at which M. abscessus growth was not observed. Results are reported as medians determined from three independent biological replicates. […] Middlebrook 7H9 broth was used for this assay and growth or lack thereof of M. tuberculosis was assessed after incubation at 37 °C for 14 days.

[6] = in vivo; parameters: species or system BALB/c mice; conditions: mouse, sc
Method: All procedures involving mice were approved by the Animal Care and Use Committee of Johns Hopkins University. […] Blood was sampled from three mice per group per time point by mandibular vein puncture or cardiac puncture at the following time points: 5, 15, 30, 60, 120, and 240 min post-dose. Plasma was separated in heparin-containing tubes and frozen. […] Concentration–time data were analyzed by standard non-compartmental and compartmental techniques using WinNonlin (version 7.0; Pharsight, Mountain View, CA). A one-compartmental model was used to perform simulations to predict the plasma concentration–time profile after subcutaneous doses of 150, 300, and 450 mg/kg, alone and in combination with probenecid. A plasma free drug fraction of 2% of the total drug concentration was included in the simulations.

## C[C@@H](O)C1C(=O)N2C(C(=O)O)=C(SC3CN(C4=NCCS4)C3)SC12 (stereo in doubt) [T405]
[1]; T405 2 µg/mL with vs without avibactam 256 µg/mL
  Reduction in the frequency of resistance on addition of avibactam: ~3 log
[1]; T405 at MIC (2 µg/mL) combined with avibactam at its MIC of 256 µg/mL
  Resistance frequency: 5.8 × 10^−9
[1]; drug alone at its individual MIC (T405 2 µg/mL, imipenem 8 µg/mL)
  Resistance frequency: 2.0 × 10^−6
[1]; each at its MIC
  Frequency of resistance higher than that for imipenem: approximately 1 log
[2]; 25mg/kg alone, 0.083 h
  simulated plasma-free T405 concentration: 3120 ng/mL
[2]; 25mg/kg alone, 0.25 h
  simulated plasma-free T405 concentration: 3273.33 ng/mL
[2]; 25mg/kg alone, 0.5 h
  simulated plasma-free T405 concentration: 2446 ng/mL
[2]; 25mg/kg alone, 1 h
  simulated plasma-free T405 concentration: 1212.67 ng/mL
[2]; 25mg/kg alone, 2 h
  simulated plasma-free T405 concentration: 526 ng/mL
[2]; 25mg/kg alone, 4 h
  simulated plasma-free T405 concentration: 131.67 ng/mL
[2]; 25mg/kg alone, 6 h
  simulated plasma-free T405 concentration: 29.76 ng/mL
[2]; 25mg/kg alone, 8 h
  simulated plasma-free T405 concentration: 6.87 ng/mL
[2]; 25mg/kg alone, 10 h
  simulated plasma-free T405 concentration: 1.58 ng/mL
[2]; 25mg/kg alone, 12 h
  simulated plasma-free T405 concentration: 0.37 ng/mL
[2]; 25mg/kg alone, 16 h
  simulated plasma-free T405 concentration: 0.02 ng/mL
[2]; 25mg/kg alone, 20 h
  simulated plasma-free T405 concentration: 0 ng/mL
[2]; 25mg/kg alone, 24 h
  simulated plasma-free T405 concentration: 0 ng/mL
[2]; 150mg/kg alone, 0.083 h
  simulated plasma-free T405 concentration: 18720 ng/mL
[2]; 150mg/kg alone, 0.25 h
  simulated plasma-free T405 concentration: 19640 ng/mL
[2]; 150mg/kg alone, 0.5 h
  simulated plasma-free T405 concentration: 14676 ng/mL
[2]; 150mg/kg alone, 1 h
  simulated plasma-free T405 concentration: 7276 ng/mL
[2]; 150mg/kg alone, 2 h
  simulated plasma-free T405 concentration: 3156 ng/mL
[2]; 150mg/kg alone, 4 h
  simulated plasma-free T405 concentration: 790 ng/mL
[2]; 150mg/kg alone, 6 h
  simulated plasma-free T405 concentration: 178.58 ng/mL
[2]; 150mg/kg alone, 8 h
  simulated plasma-free T405 concentration: 41.2 ng/mL
[2]; 150mg/kg alone, 10 h
  simulated plasma-free T405 concentration: 9.51 ng/mL
[2]; 150mg/kg alone, 12 h
  simulated plasma-free T405 concentration: 2.19 ng/mL
[2]; 150mg/kg alone, 16 h
  simulated plasma-free T405 concentration: 0.12 ng/mL
[2]; 150mg/kg alone, 20 h
  simulated plasma-free T405 concentration: 0.01 ng/mL
[2]; 150mg/kg alone, 24 h
  simulated plasma-free T405 concentration: 0 ng/mL
[2]; 300mg/kg alone, 0.083 h
  simulated plasma-free T405 concentration: 37440 ng/mL
[2]; 300mg/kg alone, 0.25 h
  simulated plasma-free T405 concentration: 39280 ng/mL
[2]; 300mg/kg alone, 0.5 h
  simulated plasma-free T405 concentration: 29352 ng/mL
[2]; 300mg/kg alone, 1 h
  simulated plasma-free T405 concentration: 14552 ng/mL
[2]; 300mg/kg alone, 2 h
  simulated plasma-free T405 concentration: 6312 ng/mL
[2]; 300mg/kg alone, 4 h
  simulated plasma-free T405 concentration: 1580 ng/mL
[2]; 300mg/kg alone, 6 h
  simulated plasma-free T405 concentration: 357.16 ng/mL
[2]; 300mg/kg alone, 8 h
  simulated plasma-free T405 concentration: 82.4 ng/mL
[2]; 300mg/kg alone, 10 h
  simulated plasma-free T405 concentration: 19.01 ng/mL
[2]; 300mg/kg alone, 12 h
  simulated plasma-free T405 concentration: 4.39 ng/mL
[2]; 300mg/kg alone, 16 h
  simulated plasma-free T405 concentration: 0.23 ng/mL
[2]; 300mg/kg alone, 20 h
  simulated plasma-free T405 concentration: 0.01 ng/mL
[2]; 300mg/kg alone, 24 h
  simulated plasma-free T405 concentration: 0 ng/mL
[2]; 300 mg/kg twice daily, in the presence of avibactam
  predicted free drug time above MIC (fT>MIC): above 40%
[2]; 450mg/kg alone, 0.083 h
  simulated plasma-free T405 concentration: 56160 ng/mL
[2]; 450mg/kg alone, 0.25 h
  simulated plasma-free T405 concentration: 58920 ng/mL
[2]; 450mg/kg alone, 0.5 h
  simulated plasma-free T405 concentration: 44028 ng/mL
[2]; 450mg/kg alone, 1 h
  simulated plasma-free T405 concentration: 21828 ng/mL
[2]; 450mg/kg alone, 2 h
  simulated plasma-free T405 concentration: 9468 ng/mL
[2]; 450mg/kg alone, 4 h
  simulated plasma-free T405 concentration: 2370 ng/mL
[2]; 450mg/kg alone, 6 h
  simulated plasma-free T405 concentration: 535.74 ng/mL
[2]; 450mg/kg alone, 8 h
  simulated plasma-free T405 concentration: 123.6 ng/mL
[2]; 450mg/kg alone, 10 h
  simulated plasma-free T405 concentration: 28.52 ng/mL
[2]; 450mg/kg alone, 12 h
  simulated plasma-free T405 concentration: 6.58 ng/mL
[2]; 450mg/kg alone, 16 h
  simulated plasma-free T405 concentration: 0.35 ng/mL
[2]; 450mg/kg alone, 20 h
  simulated plasma-free T405 concentration: 0.02 ng/mL
[2]; 450mg/kg alone, 24 h
  simulated plasma-free T405 concentration: 0 ng/mL
[2]; 450 mg/kg twice daily with probenecid, in absence of avibactam
  predicted free drug time above MIC (fT>MIC): 54%
[2]; 450 mg/kg twice daily with probenecid, in presence of avibactam
  predicted free drug time above MIC (fT>MIC): 72%
[2]; 450 mg/kg twice daily, free fraction 2%, MIC 0.5 µg/mL (ATCC 19977 in presence of avibactam)
  predicted free drug time above MIC (fT>MIC): 48%
[2]; 450 mg/kg twice daily, free fraction 2%, MIC 2 µg/mL (absence of avibactam)
  predicted free drug time above MIC (fT>MIC): 35%
[2]; 450mg/kg+Prob (with probenecid), 0.083 h
  simulated plasma-free T405 concentration: 48480 ng/mL
[2]; 450mg/kg+Prob (with probenecid), 0.25 h
  simulated plasma-free T405 concentration: 52560 ng/mL
[2]; 450mg/kg+Prob (with probenecid), 0.5 h
  simulated plasma-free T405 concentration: 44640 ng/mL
[2]; 450mg/kg+Prob (with probenecid), 1 h
  simulated plasma-free T405 concentration: 29664 ng/mL
[2]; 450mg/kg+Prob (with probenecid), 2 h
  simulated plasma-free T405 concentration: 16020 ng/mL
[2]; 450mg/kg+Prob (with probenecid), 4 h
  simulated plasma-free T405 concentration: 6636 ng/mL
[2]; 450mg/kg+Prob (with probenecid), 6 h
  simulated plasma-free T405 concentration: 2425.1 ng/mL
[2]; 450mg/kg+Prob (with probenecid), 8 h
  simulated plasma-free T405 concentration: 908.73 ng/mL
[2]; 450mg/kg+Prob (with probenecid), 10 h
  simulated plasma-free T405 concentration: 340.52 ng/mL
[2]; 450mg/kg+Prob (with probenecid), 12 h
  simulated plasma-free T405 concentration: 127.6 ng/mL
[2]; 450mg/kg+Prob (with probenecid), 16 h
  simulated plasma-free T405 concentration: 17.92 ng/mL
[2]; 450mg/kg+Prob (with probenecid), 20 h
  simulated plasma-free T405 concentration: 2.52 ng/mL
[2]; 450mg/kg+Prob (with probenecid), 24 h
  simulated plasma-free T405 concentration: 0.35 ng/mL
[3]
  stability in mouse plasma: no measurable degradation
[4]
  blood plasma binding (bound): 98%
[5]
  MIC: 0.5 to 1 µg/mL (≈ 1.29 to 2.58 µM)
[6]; female, BALB/c
  half-life: 1.26 h
[6]; female, BALB/c, 25 mg/kg
  AUC(0-t): 205 µg·h/mL
  Cmax: 164 µg/mL
  half-life: 0.82 h
[6]
  Half-life, effect of co-administration with cilastatin: not affected
